Measured values as given in patent publication US7037660B2, “Methods for detecting and quantifying binding and inhibition of binding of species to nucleic acids” (Message Pharmaceuticals, priority 2001, dated 2006).

Tests used:
[1] = Proton exchange pKA of probe; type: physicochemical; settings: dynamic proton exchange of the probe
Description: (§1) Displacement of Mn^2+ from RNA by RSG1.2, or neomycin b: Binding of RSG1.2 and neomycin b to each of the hairpins was studied at [RNA] between 20 and 30 μM, and again at [RNA]˜3 μM. The higher concentration studies were performed in a manner identical to that described above for the Mg^2+ exchange reactions. For the low concentration studies, HPO3^2− (20 mM) was used as the probe ion. Reactions were run in 10 mM PIPES buffer, with 45 mM KCl and [Mn^2+] between 50 and 150 nM. The pH of the samples was maintained at 7.8 in these experiments. Studies utilizing HPO3^2− are impractical at lower pH where the probe undergoes dynamic proton exchange (pKA=6.0) leading to significant shortening of the diamagnetic ^31P T2.

RRE2 = test: Displacement of Mn2+ from RNA by neomycin b (probe 31P relaxation); type: binding; settings: each condition studied
Description: (§2) Mn^2+ binding by RNA constructs, and its displacement by either K^+ or Mg^2+. Samples containing MeOPH (5 mM) and PIPES buffer (5 mM, pH=7.2), and 3 μM Mn^2+ were titrated with each RNA. The ^31P transverse relaxation rates (R2=1/T2) of the probe in the resulting solutions were measured. Plots of R2 versus [RNA] were prepared. The effects of [K^+] and [Mg^2+] on Mn^2+ binding were determined by titrating similar solutions containing buffer, MeOPH, Mn^2+ and one of the RNAs (10 to 30 μM) with solutions of either KCl or MgCl2, and monitoring the relaxation rate of the probe as a function of cation concentration. The effects of [K^+] were studied over the range of 12.5 to 150 mM ([…] K^+ is reportedly 140 mM). Mn^2+ displacements from each of the hairpins by Mg^2+, neomycin b, and RSG1.2 were studied in the absence of added KCl and with sufficient KCl added to bring the total [K^+] to 100 mM.
as §1, with “The pH of the samples was maintained at 7.8 in these experiments. Studies utilizing HPO3^2− are impractical at lower pH where the probe undergoes dynamic proton exchange (pKA=6.0) leading to significant shortening of the diamagnetic ^31P T2.” left out

RRE1 = test: as above; type: binding; settings: each condition studied
Description: as §2
as §1, with “The pH of the samples was maintained at 7.8 in these experiments. Studies utilizing HPO3^2− are impractical at lower pH where the probe undergoes dynamic proton exchange (pKA=6.0) leading to significant shortening of the diamagnetic ^31P T2.” left out

[2] = test system: 27-nt A-site RNA construct; test: Displacement of Mn2+ from RNA by neomycin (probe 31P relaxation); type: binding
Description: The ^31P T2 was measured for each sample by varying the length (number of pulses) of the CPMG portion of the pulse sequence in FIG. 2 and determining the effect of this change on the intensity (i) of the signals. […] The dl delay was typically 5 to 20 seconds, and delays in the inept and reverse inept parts of the sequence were set to a value equal to 1/4J, where J is the ^1H—^31P coupling constant. Delays between pulses in the CPMG train varied from 50 to 500 microseconds.
The data shown in FIG. 9 were most consistent with a model where three neomycin molecules were bound to each RNA molecule with subsequent release of Mn^2+.
as §2
as §1, with “Studies utilizing HPO3^2− are impractical at lower pH where the probe undergoes dynamic proton exchange (pKA=6.0) leading to significant shortening of the diamagnetic ^31P T2.” left out

another RRE1 model = settings: cited from earlier work

O=[PH](O)O [HPO3^2−, phosphite dianion]
pKA [1]: 6.0

NC[C@@H]1O[C@H](O[C@H]2[C@@H](O)[C@H](O[C@@H]3[C@@H](O)[C@H](N)C[C@H](N)[C@H]3O[C@H]3O[C@H](CN)[C@@H](O)[C@H](O)[C@H]3N)O[C@@H]2CO)[C@H](N)[C@@H](O)[C@@H]1O [neomycin, neomycin b]
equivalents of neomycin bound (RRE2): multiple equivalents
equivalents of neomycin bound (RRE1): multiple equivalents
neomycin molecules bound to each RNA molecule ([2]; RNA 27 μM, Mn^2+ 16 μM (Example 11)): three
equivalents of neomycin bound ([2]; [RNA]=2.7 μM, 100 mM K^+): single equivalent
equivalents of neomycin bound ([2]; [RNA]=27 μM (Example 16, data not shown)): 3
equivalents of neomycin b bound (another RRE1 model): three
